The text below walks through data of patent publication US5665769A, “Pharmaceutical composition for preventing and treating retinal diseases” (Senju Pharmaceuticals Co., Ltd., priority 1993, dated 1997).

For one data set, the system named is retinal rhodopsin. In words: Retinal light damage in rats, retinal rhodopsin amount (Experiment 2 (B-1)). Format: in vivo. Conditions: for Amount of retinal rhodopsin: mean ± S.D. Here is the method: (B) In vivo experiment by light exposure in rats
(B-1) Evaluation by retinal pathological tissues and rhodopsin amount
Rats were subjected to dark adaptation for 72 hours. Then the rats were irradiated continuously for 12 hours using a green fluorescent lamp (10 W, 490-580 nm), the illumination intensity of which was adjusted to 2000 to 2400 lux. A suspension of 1.5% or 5.0% 2-O-octadecylascorbic acid was orally administered three times a day (90, 300 mg/kg/day) on the day of light exposure, and once a day (30, 100 mg/kg/day) after that. To the control group was administered 5.0% gum arabic solution (control) according to the same schedule. After completion of the light exposure, the rats were reared in a dark room and sacrificed on the 5th day. The right eyes were marked with ink in the upper part and fixed with 2% paraformaldehyde and 2% glutaraldehyde solutions. Histopathological evaluation was made using a light microscope and the thickness of retinae (thickness of retinal entire layer and outer nuclear layer) was measured. The left eyes were stored under freezing conditions at -20° C. for rhodopsin determination after removal of the cornea, lens and vitreous body.
Rhodopsin was determined as follows. Firstly, the optic cup was sliced under a red lamp in a dark room, and retinal homogenates were prepared using 0.1M phosphate buffer (pH 7.2). After centrifugation at 15,000 rpm for 15 minutes, the precipitation was treated with 4% potassium alum solution. After washing, rhodopsin was extracted with 1% Emulphogen BC-720 (trade mark). The absorbance at 500 nm was measured using the centrifuged supernatant as the sample. The sample was bleached by light exposure with a yellow lamp for 5 minutes. The absorbance at 500 nm was measured again. The rhodopsin amount was calculated from the difference between the absorbances before and after the bleach (molar absorption coefficient: 42,000).

A further data set has as its system retina (ERG in rats). Description: ERG in rats after light exposure for 20 hours (Experiment 2 (B-2), Method 2). In kind it is in vivo. The conditions noted are these: 5.0% suspension, light 20 hours. As to the method:
FIG. 5 is a graph showing the a-wave latency of ERG in rats after light exposure for 20 hours in Experiment 2 (B-2)(Method 2). The abscissa indicates time (day) after light exposure and the ordinate indicates a-wave latency (msec).
(B-2) Evaluation of ERG determination
Rats were subjected to dark adaptation for 12 hours and irradiated with light for 20 successive hours under the same conditions as those of (Method-1). After subjecting them to dark adaptation for 2 hours, ERG was determined. A 5.0% 2-O-octadecylascorbic acid suspension or 5.0% gum arabic solution (control) was orally administered once a day (100 mg/kg/day) from 7 days before the light exposure and twice a day (200 mg/kg/day) only on the day of the light exposure.

For a further data set, the system named is retina (rat). In words: Retinal peroxidation induced by intravitreous injection of ferrous sulfate in rats, retinal TBA values (Experiment 1 (B-1)). Format: in vivo, SD rats. The conditions noted are these: 1.5% suspension, 30 mg/kg oral. Here is the method: (B) In vivo experiment in rats by intravitreous injection of ferrous ion:
(B-1) Evaluation by retinal TBA values
Antioxidative effects of oral administration of a suspension of 2-O-octadecylascorbic acid (30 mg/kg) on the retinal peroxidation induced by intravitreous injection of ferrous sulfate in rats were examined.
Seven weeks old SD rats fasted from the previous day were divided into 2 groups. A 5% solution of gum arabic (control)(2 ml/kg) was administered orally to one group in 3 divided portions. A 1.5% suspension (2 ml/kg) of 2-O-octadecylascorbic acid (30 mg/kg) was administered orally to the other group in 3 divided portions. Two hours after the first administration, rats were anesthetized systemically with ketamine hydrochloride. A 5 mM solution (5 μl) of ferrous sulfate was injected intravitreously into each of the left eyes, and physiological saline (5 μl) was injected intravitreously into each of the right eyes. Each injection was carried out using a microsyringe. One and four hours after the injection, a suspension of 2-O-octadecylascorbic acid or a 5% solution of gum arabic were administered again. Two hours after the third administration (i.e. six hours after the injection of ferrous ion), the rats were sacrificed. The eyeballs were removed, retinal homogenates were prepared from the eyes, and the TBA values and protein were determined.

Data set [1] has as its system bovine retinal homogenate. Description: Ferrous chloride-induced peroxidation of bovine retinal homogenate in vitro, TBA value (Experiment 1 (A)). In kind it is biochemical. Conditions: 10^-4 M. Here is the method:
(A) In vitro experiment using a bovine retinal homogenate:
Effects of 2-O-octadecylascorbic acid on the peroxidation induced by adding ferrous chloride to a bovine retinal homogenate were examined.
(1) Retinae were removed from bovine eyeballs (1/2 eye). Physiological saline was added to the retinae to prepare bovine retinal homogenates.
(2) Ferrous chloride (0.5 mM, dissolved in distilled water) was added to each of the retinal homogenates obtained in the above. Further, 2-O-octadecylascorbic acid and α-tocopherol were added to the resulting homogenates to final concentrations of the reaction mixtures of 10^-4 M, respectively. Further, distilled water was added to each of the homogenates to adjust a total volume to 1 ml. 2-O-octadecylascorbic acid and α-tocopherol were dissolved and diluted with ethanol. Thus, the final concentrations of ethanol in all of the reaction mixtures were adjusted to 1%. Then, the mixtures were subjected to reaction at 37° C. for 1 hour.
(3) 0.35% thiobarbituric acid (hereinafter referred to as TBA) reagent (50% aqueous acetic acid solution)(1 ml) was added to the reaction mixtures or standard solutions of the retinal homogenates obtained in the above (2). The mixtures were subjected to reaction in boiling water at 100° C. for 1 hour. After water cooling, n-butanol (2 ml) was added, and the mixtures were shaken for 5 minutes and centrifuged at 3000 rpm for 10 minutes. Fluorescence intensities (excitation wave length: 515 nm, emission wave length: 553 nm) were determined for the n-butanol layer. Proteins were determined using Bio-Rad Protein Assay Kit (trade name).

SMILES strings stand for the structures.

Consider `CCCCCCCCCCCCCCCCCCOC1=C(O)[C@@H]([C@@H](O)CO)OC1=O` [2-O-octadecylascorbic acid], for which the “Amount of retinal rhodopsin” value in the data set with retinal rhodopsin (1.5% suspension, n=5) stood at 0.51 ± 0.20 nM/eye; in the data set on retinal rhodopsin (5.0% suspension, n=3), 0.69 ± 0.14 nM/eye. For the same compound, the “decrease of the amount of rhodopsin by light exposure (in words)” value with retinal rhodopsin (suspension administered groups) is “the tendency to inhibit the decrease of the amount of rhodopsin by light exposure was observed”. Also, the “delay of the a-wave latency” value in the data set with retina (ERG in rats) (oral 100 mg/kg/day from 7 days before, 200 mg/kg/day on day of light exposure) is on record as “significantly inhibited the delay of the a-wave latency”. Moreover, the “amplitude of a-wave and b-wave” value with retina (ERG in rats) (both groups) was “decreased in both groups”. In addition, the “increase in the TBA value of the retina induced by intravitreous injection of ferrous ion” value in the data set on retina (rat) is listed as “significantly inhibited the increase in the TBA value of the retina”. For the same compound, the “Retina: TBA value, left eye” value with retina (rat) (left eye (ferrous sulfate injected), mean ± S.D., n=6, p < 0.01 vs control) is 0.47 ± 0.11 nM malondialdehyde/mg protein. Moreover, the “Retina: TBA value, right eye” value with retina (rat) (right eye (physiological saline injected), mean ± S.D., n=6) is given as 0.36 ± 0.06 nM malondialdehyde/mg protein. For the same compound, the “inhibitory effect on the peroxidation of the retinal homogenate” value in data set [1] (compared with α-tocopherol) was “more excellent inhibitory effect on the peroxidation of the retinal homogenate than that in the presence of α-tocopherol”. Besides, the “Retina: TBA value” in data set [1] (0.5 mM ferrous chloride, 37° C., 1 hour, mean ± S.D., n=3, p < 0.001 vs control) was 0.61 ± 0.04 nM malondialdehyde/mg protein. Also, the Inhibitory ratio in data set [1] (ferrous chloride control = 0, blank = 100, 60 min) is 94.9%.
